Test results as given in US20180272034A1, “USE OF CSA COMPOUNDS TO PREVENT MICROBIAL BUILD-UP OR FOULING OF MEDICAL IMPLANTS” (BRIGHAM YOUNG UNIVERSITY, priority 2017, published 2018).

Tests used:
Pseudomonas aeruginosa = settings: mixed-species biofilms grown 22 hours, 20 hours of treatment
Description: (§1) Several CSA compounds were tested against Pseudomonas aeruginosa and Staphylococcus aureus mixed-species biofilms grown for an initial 22 hours and subjected to 20 hours of treatment.

Staphylococcus aureus = settings: mixed-species biofilms grown 22 hours, 20 hours of treatment
Description: as §1

Candida auris isolates = assay: Antifungal MIC, CLSI M27-A3; format: cell-based
Description: The antifungal effectiveness of CSA-131 was tested against 100 Candida auris isolates. The C. auris isolates were from all over the world and covered known C. auris clades. The selection included isolated known to have elevated MIC values against fluconazole, the echinocandins, and/or amphotericin B.
Testing was performed according to the standards of the Clinical and Laboratory Standards Institute reference methodology M27-A3 (as of 2017). CSA-131 was dissolved in DMSO and diluted as described in M27-A3 to give a final DMSO concentration of <1%. Dilution plates were stored at −70° C. until used and were used within one week of being produced. All results were read visually after 24 hours of incubation at the lowest drug concentration at which there was a 50% decrease in growth by visual inspection. Quality control isolates C. parapsilosis ATCC 22019 and C. krusei ATCC 6258 were included on each day of testing although there are no standard QC values for these isolates against this compound. The MIC values for ATCC 22019 and ATCC 6258 remained within a tight range of 1-2 dilutions over the course of the study.

[1] = Pre-term lambs intubated with coated endotracheal tubes, tracheal mucosal integrity; format: in vivo
From the text: Pre-term lambs were intubated using endotracheal tubes (ETTs) including a coating having CSA-131. Tracheal mucosal integrity of the lambs was compared to the tracheal mucosal integrity of a control group (intubated with uncoated ETTs). […] FIG. 2 illustrates the histological appearance of tracheas of the premature lambs that were intubated for three days. […] An area of denuded epithelium (arrowhead), and accumulation of white blood cells (arrow) are highlighted.

[2] = 100 C. auris isolates, 50% decrease in growth, 24 hours
[3] = fluconazole Resistant isolates, 69
[4] = fluconazole Susceptible isolates, 30
[5] = isolates with elevated echinocandin MICs, 7

SMILES: CCCCCCCCCCCCNCCC[C@@H](C)[C@H]1CC[C@H]2[C@@H]3[C@H](OCCCN)C[C@@H]4C[C@H](OCCCN)CC[C@]4(C)[C@H]3C[C@H](OCCCN)[C@]12C.Cl.Cl.Cl.Cl [CSA-131]
- MBC P. aeruginosa (Pseudomonas aeruginosa): 3.125 µg/mL
- MIC P. aeruginosa (Pseudomonas aeruginosa): 3.125 µg/mL
- MBC S. aureus (Staphylococcus aureus): 1.56 µg/mL
- MIC S. aureus (Staphylococcus aureus): 0.78 µg/mL
- No. of Isolates at MIC 0.016 (Candida auris isolates; 100 C. auris isolates): 0
- No. of Isolates at MIC 0.03 (Candida auris isolates; 100 C. auris isolates): 0
- No. of Isolates at MIC 0.0625 (Candida auris isolates; 100 C. auris isolates): 0
- No. of Isolates at MIC 0.125 (Candida auris isolates; 100 C. auris isolates): 0
- No. of Isolates at MIC 0.25 (Candida auris isolates; 100 C. auris isolates): 0
- No. of Isolates at MIC 0.5 (Candida auris isolates; 100 C. auris isolates): 39
- No. of Isolates at MIC 1 (Candida auris isolates; 100 C. auris isolates): 61
- No. of Isolates at MIC 2 (Candida auris isolates; 100 C. auris isolates): 0
- No. of Isolates at MIC <0.016 (Candida auris isolates; 100 C. auris isolates): 0
- No. of Isolates at MIC >2 (Candida auris isolates; 100 C. auris isolates): 0
- MIC50 (Candida auris isolates; [2]): 1 µg/mL
- MIC90 (Candida auris isolates; [2]): 1 µg/mL
- MIC Mode (Candida auris isolates; [2]): 1 µg/mL
- MIC Range (Candida auris isolates; 100 C. auris isolates, 50% decrease in growth, 24 hours, in µg/mL): 0.5-1
- activity against C. auris collection (Candida auris isolates; 100 isolates, 4 clades): showed activity against all C. auris
- MIC50 (Candida auris isolates; Clade 1, 47 isolates): 1 µg/mL
- MIC90 (Candida auris isolates; Clade 1, 47 isolates): 1 µg/mL
- MIC Mode (Candida auris isolates; Clade 1, 47 isolates): 1 µg/mL
- MIC Range (Candida auris isolates; Clade 1, 47 isolates): 0.5 to 1 µg/mL
- MIC50 (Candida auris isolates; Clade 2, 11 isolates): 1 µg/mL
- MIC90 (Candida auris isolates; Clade 2, 11 isolates): 1 µg/mL
- MIC Mode (Candida auris isolates; Clade 2, 11 isolates): 1 µg/mL
- MIC Range (Candida auris isolates; Clade 2, 11 isolates): 0.5 to 1 µg/mL
- MIC50 (Candida auris isolates; Clade 3, 39 isolates): 1 µg/mL
- MIC90 (Candida auris isolates; Clade 3, 39 isolates): 1 µg/mL
- MIC Mode (Candida auris isolates; Clade 3, 39 isolates): 1 µg/mL
- MIC Range (Candida auris isolates; Clade 3, 39 isolates): 0.5 to 1 µg/mL
- MIC50 (Candida auris isolates; Clade 4, 3 isolates): 0.5 µg/mL
- MIC90 (Candida auris isolates; Clade 4, 3 isolates): 1 µg/mL
- MIC Mode (Candida auris isolates; Clade 4, 3 isolates): 0.5 µg/mL
- MIC Range (Candida auris isolates; Clade 4, 3 isolates): 0.5 to 1 µg/mL
- MIC50 (Candida auris isolates; [3]): 1 µg/mL
- MIC90 (Candida auris isolates; [3]): 1 µg/mL
- MIC Mode (Candida auris isolates; [3]): 1 µg/mL
- MIC Range (Candida auris isolates; [3]): 0.5 to 1 µg/mL
- MIC50 (Candida auris isolates; [4]): 0.5 µg/mL
- MIC90 (Candida auris isolates; [4]): 1 µg/mL
- MIC Range (Candida auris isolates; [4]): 0.5 to 1 µg/mL
- MIC50 (Candida auris isolates; [5]): 1 µg/mL
- MIC90 (Candida auris isolates; [5]): 1 µg/mL
- MIC Mode (Candida auris isolates; [5]): 1 µg/mL
- MIC Range (Candida auris isolates; isolates with elevated echinocandin MICs, 7, in µg/mL): 0.5-1
- tracheal mucosal integrity vs control group (uncoated ETTs) ([1]; pre-term lambs intubated with ETTs coated with CSA-131 coating): markedly improved mucosal integrity
- histological appearance of trachea (FIG. 2, image b) ([1]; premature lambs intubated for three days, CSA-131 coated ETT): the epithelium is healthy and intact, and the subjacent connective tissue region is not inflamed
